PubChem BioAssay AID248 (DTP/NCI, 2004)
Several values for one entry are separate records, joined by “and”; a condition that tells them apart may be missing. Equal values may be shown once. Toxic doses and inconclusive results are not listed. No stated cut-off is given here; in the data, active means T/C of 150% or more; inactive means T/C below 125%.

Test system: L1210 leukemia ip in BDF1 mice, survival T/C
Assay: NCI In Vivo Anticancer Drug Screen. Data for tumor model L1210 Leukemia (intraperitoneal) in B6D2F1 (BDF1) mice
Details: endpoint: mean survival time, higher = longer survival
In short: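 Transplanted-tumor mice were given test agent; controls received vehicle only. Survival readings from the two groups were divided (treated over control).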

[1] = dose: 12.5 mg/kg/injection, schedule: Q04DX002 (ip), vehicle: Klucel (hydroxypropylcellulose) (HPC)
[2] = dose: 25.0 mg/kg/injection, schedule: Q04DX002 (ip), vehicle: Klucel (hydroxypropylcellulose) (HPC)
[3] = dose: 50.0 mg/kg/injection, schedule: Q04DX002 (ip), vehicle: Klucel (hydroxypropylcellulose) (HPC)
[4] = dose: 100.0 mg/kg/injection, schedule: Q04DX003 (ip), vehicle: Klucel (hydroxypropylcellulose) (HPC)
[5] = dose: 200.0 mg/kg/injection, schedule: Q04DX003 (ip), vehicle: Klucel (hydroxypropylcellulose) (HPC)
[6] = dose: 400.0 mg/kg/injection, schedule: Q04DX003 (ip), vehicle: Klucel (hydroxypropylcellulose) (HPC)
[7] = dose: 100.0 mg/kg/injection, schedule: Q01DX009 (ip), vehicle: Klucel (hydroxypropylcellulose) (HPC)
[8] = dose: 200.0 mg/kg/injection, schedule: Q01DX009 (ip), vehicle: Klucel (hydroxypropylcellulose) (HPC)
[9] = dose: 400.0 mg/kg/injection, schedule: Q01DX009 (ip), vehicle: Klucel (hydroxypropylcellulose) (HPC)
[10] = dose: 50.0 mg/kg/injection, schedule: Q01DX009 (ip), vehicle: Klucel (hydroxypropylcellulose) (HPC)

Measured: T/C

Cc1cc(Cl)ccc1OC(=O)COc1cc(Cl)c(Cl)cc1Cl
inactive: dose: 1.56 mg/kg/injection, schedule: Q04DX002 (ip), vehicle: Klucel (hydroxypropylcellulose) (HPC) 108 % of control | dose: 3.13 mg/kg/injection, schedule: Q04DX002 (ip), vehicle: Klucel (hydroxypropylcellulose) (HPC) 108 % of control | dose: 6.25 mg/kg/injection, schedule: Q04DX002 (ip), vehicle: Klucel (hydroxypropylcellulose) (HPC) 105 % of control | [1] 95 % of control | [2] 100 % of control | [3] 100 % of control

Clc1ccc(Sc2ccccc2)cc1
inactive: [4] 105 % of control | [5] 88 % of control | [6] 105 % of control

O=C(Nc1cc(C(F)(F)F)ccc1Cl)Nc1ccc(Cl)cc1[N+](=O)[O-]
inactive: [7] 93 % of control | [8] 87 % of control | [9] 100 % of control

CC(C)=CC(=O)NC(=O)NS(=O)(=O)c1ccc(C)cc1
inactive: [10] 91 % of control | [7] 95 % of control | [4] 115 % of control | [5] 104 % of control

CCCCSc1ccc2c(cc1=O)C(N)CCc1cc(OC)c(OC)c(OC)c1-2 (configuration not stated)
inactive: dose: 12.5 mg/kg/injection, schedule: Q04DX002 (ip), vehicle: saline 104 % of control | dose: 25.0 mg/kg/injection, schedule: Q04DX002 (ip), vehicle: saline 88 % of control | dose: 50.0 mg/kg/injection, schedule: Q04DX002 (ip), vehicle: saline 95 % of control

CC(=O)N=C1C=C(NC(C)=O)C(=O)c2ncccc21
inactive: dose: 50.0 mg/kg/injection, schedule: Q04DX003 (ip), vehicle: saline with Tween-80 96 % of control | dose: 100.0 mg/kg/injection, schedule: Q04DX003 (ip), vehicle: saline with Tween-80 96 % of control

O=C(O)c1ccccc1N=CC(=O)c1c2ccccc2cc2ccccc12
inactive: [1] 105 % of control | [2] 105 % of control | [3] 102 % of control

C=C1CC(=O)N(c2ccc(Cl)cc2)C1=O
inactive: dose: 25.0 mg/kg/injection, schedule: Q01DX001 (ip), vehicle: saline with Tween-80 93 % of control | dose: 50.0 mg/kg/injection, schedule: Q01DX001 (ip), vehicle: saline with Tween-80 98 % of control | dose: 100.0 mg/kg/injection, schedule: Q01DX001 (ip), vehicle: saline with Tween-80 97 % of control

O=C1c2c(O)ccc([N+](=O)[O-])c2C(=O)c2c([N+](=O)[O-])ccc(O)c21
inactive: [7] 93 % of control | [4] 106 % of control | [8] 105 % of control | [5] 95 % of control | [9] 103 % of control | [6] 95 % of control

CCCCCP(=O)(CCCCC)C1CCCC1
inactive: dose: 25.0 mg/kg/injection, schedule: Q04DX002 (ip), vehicle: saline with Tween-80 113 % of control | dose: 50.0 mg/kg/injection, schedule: Q04DX002 (ip), vehicle: saline with Tween-80 100 % of control | dose: 100.0 mg/kg/injection, schedule: Q04DX002 (ip), vehicle: saline with Tween-80 94 % of control and 90 % of control

COc1cc(C=Nc2ccc(Oc3ccc(Cl)cc3)cc2)cc(OC)c1OC
inactive: [7] 102 % of control | [8] 96 % of control

Cc1cc(=O)[nH]c(N/N=C/c2ccccc2O)n1
inactive: dose: 25.0 mg/kg/injection, schedule: Q01DX009 (ip), vehicle: Klucel (hydroxypropylcellulose) (HPC) 93 % of control | [10] 94 % of control | dose: 100.0 mg/kg/injection, schedule: Q01DX001 (ip), vehicle: saline 98 % of control | [7] 93 % of control | [4] 92 % of control | dose: 125.0 mg/kg/injection, schedule: Q01DX Z (ip), vehicle: saline 97 % of control | dose: 200.0 mg/kg/injection, schedule: Q01DX001 (ip), vehicle: saline 96 % of control | [8] 95 % of control and 96 % of control | [5] 94 % of control | dose: 250.0 mg/kg/injection, schedule: Q01DX Z (ip), vehicle: saline 91 % of control | dose: 400.0 mg/kg/injection, schedule: Q01DX001 (ip), vehicle: saline 96 % of control | [6] 94 % of control | dose: 500.0 mg/kg/injection, schedule: Q01DX Z (ip), vehicle: saline 91 % of control | dose: 1000.0 mg/kg/injection, schedule: Q01DX Z (ip), vehicle: saline 91 % of control
